The assay has as its target T1, human farnesoid X receptor (Homo sapiens, UniProt Q96RI1).
T1 construct: CMX-farnesoid X receptor (full length human farnesoid X receptor); expressed in transfected cells; host or cells: CV-1 African Green Monkey Kidney cells
T1 sequence (Q96RI1 1-472 isoform Q96RI1-2): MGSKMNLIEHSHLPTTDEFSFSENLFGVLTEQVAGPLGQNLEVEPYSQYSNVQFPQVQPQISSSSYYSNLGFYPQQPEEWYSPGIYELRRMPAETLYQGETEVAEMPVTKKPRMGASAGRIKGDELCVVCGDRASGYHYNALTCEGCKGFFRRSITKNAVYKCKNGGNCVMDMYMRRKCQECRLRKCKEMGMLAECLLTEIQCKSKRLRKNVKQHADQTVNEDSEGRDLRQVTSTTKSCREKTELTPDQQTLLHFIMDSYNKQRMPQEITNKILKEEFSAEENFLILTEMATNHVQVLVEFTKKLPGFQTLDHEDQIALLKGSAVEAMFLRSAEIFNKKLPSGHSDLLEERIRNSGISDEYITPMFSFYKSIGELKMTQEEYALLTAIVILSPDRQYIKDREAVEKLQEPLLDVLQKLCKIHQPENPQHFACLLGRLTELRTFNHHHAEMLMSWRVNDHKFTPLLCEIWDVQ
T1 sequence (P19793 1-462 partner): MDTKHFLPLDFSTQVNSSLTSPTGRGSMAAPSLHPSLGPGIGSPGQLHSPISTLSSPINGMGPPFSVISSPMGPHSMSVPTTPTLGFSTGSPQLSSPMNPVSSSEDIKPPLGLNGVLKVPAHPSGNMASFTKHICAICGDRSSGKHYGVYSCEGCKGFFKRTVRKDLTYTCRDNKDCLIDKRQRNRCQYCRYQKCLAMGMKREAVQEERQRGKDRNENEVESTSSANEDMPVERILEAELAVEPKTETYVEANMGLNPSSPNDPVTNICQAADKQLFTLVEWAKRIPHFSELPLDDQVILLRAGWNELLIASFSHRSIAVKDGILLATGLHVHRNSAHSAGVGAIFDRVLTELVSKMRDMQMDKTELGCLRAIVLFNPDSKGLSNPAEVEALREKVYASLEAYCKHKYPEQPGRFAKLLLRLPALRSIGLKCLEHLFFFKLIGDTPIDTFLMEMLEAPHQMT
The assay can be described thus: FXR in vitro assays (farnesoid X receptor/ECREx7 co-transfection assay, TR-FRET assay), Table I. Particulars: for Emax: read-out: % Efficacy. Type of assay: cell-based. How it is done:
The basic co-transfection protocol for measuring the farnesoid X receptor activity is as follows. CV-1 African Green Monkey Kidney cells were plated 24 hours before transfection to achieve approximately 70-80 percent confluency. […] The assay was allowed to continue for an additional 18-20 hours, after which the cells were lysed, with lysis buffer (1% triton X 100, 10% glycerol, 5 mM Dithiothreitol, 1 mM EGTA, 25 mM Tricine, pH 7.8) and the luciferase activity measured in the presence of Luciferase assay buffer (0.73 mM ATP, 22.3 mm Tricine, 0.11 mM EGTA, 0.55 mM Luciferin, 0.15 mM Coenzyme A, 0.5 mM HEPES, 10 mM Magnesium sulphatc) on a standard luminometer plate reader (PE Biosystems, NorthStar Reader), using recommended operating instructions and conditions.
The dose response curves are generated from an 8 point curve with concentrations differing by ½ LOG units. Each point represents the average of 4 wells of data from a 384 well plate. A curve for the data is generated by using the equation:
Y=Bottom+(Top−Bottom)/(1+10̂((Log EC50−X)*HillSlope))
The EC50/IC50 is therefore defined as the concentration at which an agonist or antagonist elicits a response that is half way between the Top (maximum) and Bottom (baseline) values. The EC50/IC50 values represented are the averages of at least 3 independent experiments.
Background: In TR-FRET formats the signal depends on donor and acceptor labels being close together.

The mark [1] stands for this setting: agonist activity, one or more of the in vitro assays, read-out: EC50.

Like-named read-outs stand apart in the source and are kept apart here.

`CC(C)OC(=O)C1=CN(C(=O)c2ccc3c(c2)OC(F)(F)O3)CC(C)(C)c2c1[nH]c1ccccc21` [Example 92, 1-methylethyl 3-[(2,2-difluoro-1,3-benzodioxol-5-yl)carbonyl]-1,1-dimethyl-1,2,3,6-tetrahydroazepino[4,5-b]indole-5-carboxylate]: the Emax was > 100%. For the same compound, the EC50 (commonly the concentration needed to bring the measured effect to its halfway point) under setting [1] is 100 to 1000 nM. As to `CC(C)OC(=O)C1=CN(C(=O)c2ccc(C3CCNCC3)cc2)CC(C)(C)c2c1[nH]c1ccccc21` [Example 94, 1-methylethyl 1,1-dimethyl-3-[(4-piperidin-4-ylphenyl)carbonyl]-1,2,3,6-tetrahydroazepino[4,5-b]indole-5-carboxylate], the EC50 under setting [1] is > 10000 nM. Still for that read-out and setting: in the case of `CC(C)OC(=O)C1=CN(C(=O)c2cccc(C3CCNCC3)c2)CC(C)(C)c2c1[nH]c1ccccc21` [Example 95, 1-methylethyl 1,1-dimethyl-3-[(3-piperidin-4-ylphenyl)carbonyl]-1,2,3,6-tetrahydroazepino[4,5-b]indole-5-carboxylate] it was > 10000 nM. For the compound `CCN(CC)CCNC(=O)Oc1ccc2c3c([nH]c2c1)C(C(=O)OC(C)C)=CN(C(=O)c1ccc(F)c(F)c1)CC3(C)C` [Example 97, 1-methylethyl 8-[({[2-(diethylamino)ethyl]amino}carbonyl)oxy]-3-[(3,4-difluorophenyl)carbonyl]-1,1-dimethyl-1,2,3,6-tetrahydroazepino[4,5-b]indole-5-carboxylate], the EC50 fell in the range of 10 to 100 nM and the Emax is > 100%. In the case of `CC(C)OC(=O)C1=CN(C(=O)c2ccc(F)c(F)c2)CC(C)(C)c2c1[nH]c1cc(OCCN(C)C)ccc21` [Example 98, 1-methylethyl 3-[(3,4-difluorophenyl)carbonyl]-8-{[2-(dimethylamino)ethyl]oxy}-1,1-dimethyl-1,2,3,6-tetrahydroazepino[4,5-b]indole-5-carboxylate], the Emax is < 40%. For the same compound, the EC50 under setting [1] was in the range of 100 to 1000 nM. For `CC(C)OC(=O)C1=CN(C(=O)c2ccc(F)c(F)c2)CC(C)(C)c2c1[nH]c1cc(OCCCN(C)C)ccc21` [Example 99, 1-methylethyl 3-[(3,4-difluorophenyl)carbonyl]-8-{[3-(dimethylamino)propyl]oxy}-1,1-dimethyl-1,2,3,6-tetrahydroazepino[4,5-b]indole-5-carboxylate], in that order: 40 to 60% and 100 to 1000 nM. For `COc1ccc(C(=O)N2C=C(C(=O)OC(C)C)c3[nH]c4ccccc4c3C(C)(C)C2)cc1OC` [Example 100, 1-methylethyl 3-{[3,4-bis(methyloxy)phenyl]car-bonyl}-1,1-dimethyl-1,2,3,6-tetrahydroazepino[4,5-b]indole-5-carboxylate], in that order: > 100% and 10 to 100 nM. As for `CC1(C)CN(C(=O)c2ccc(F)c(F)c2)C=C(C(=O)NCCC(=O)O)c2[nH]c3ccccc3c21` [Example 101, N-({3-[(3,4-difluorophenyl)carbonyl]-1,1-dimethyl-1,2,3,6-tetrahydroazepino[4,5-b]indol-5-yl}carbonyl)-beta-alanine], the EC50 under setting [1] was > 10000 nM. Take `CNC(=O)Oc1ccc2c3c([nH]c2c1)C(C(=O)OC(C)C)=CN(C(=O)c1ccc(F)c(F)c1)CC3(C)C` [Example 102, 1-methylethyl 3-[(3,4-difluorophenyl)carbonyl]-1,1-dimethyl-8-{[(methylamino)carbonyl]oxy}-1,2,3,6-tetrahydroazepino[4,5-b]indole-5-carboxylate]: the EC50 lay within 10 to 100 nM and the Emax was < 40%. Take `CCN(CC)CCOc1ccc2c3c([nH]c2c1)C(C(=O)OC(C)C)=CN(C(=O)c1ccc(F)c(F)c1)CC3(C)C` [Example 103, 1-methylethyl 8-{[2-(diethylamino)ethyl]oxy}-3-[(3,4-difluorophenyl)carbonyl]-1,1-dimethyl-1,2,3,6-tetrahydroazepino[4,5-b]indole-5-carboxylate]: the Emax is < 40%. Moreover, under setting [1], the EC50 lay within 100 to 1000 nM.
